Assay results taken from US20210060121A1, “NOVEL ANTIBIOTICS AND METHODS OF USING THEM” (priority 2018, published 2021).
In brackets after ≈: the same amount, converted by molar mass.

Key:
MRSA SA11 = type: cell-based, Staphylococcus aureus
Experimental: (§1) Susceptibility to teixobactin and its analogues was tested on the selected Gram-positive strains using Tecan Freedom EVO high-throughput automated platform, following the standard broth dilution method as described by the Clinical and Laboratory Standards Institute ^3. MICS were determined according to CLSI guideline.

MRSA SA86 = type: cell-based, Staphylococcus aureus
Experimental: as §1

MRSA SA88 = type: cell-based, Staphylococcus aureus
Experimental: as §1

MRSA(SA11I4) = type: cell-based, Staphylococcus aureus
Experimental: as §1

SA (ATCC29213) = type: cell-based, Staphylococcus aureus
Experimental: as §1

Enterococcus ATCCET = type: cell-based
Experimental: as §1

Enterococcus ET60 = type: cell-based
Experimental: as §1

Enterococcus ET6 = type: cell-based
Experimental: as §1

[1] = tested on: Streptococcus faecalis SF; type: cell-based
Experimental: as §1

MRSA and SA strains = assay: MIC, summary over S. aureus strains; type: cell-based, Staphylococcus aureus; conditions: MRSA clinical isolate and MSSA ATCC29213; from MICs
Experimental: as §1

SMILES: CC[C@@H](C)[C@@H](NC(=O)[C@@H](CCC(N)=O)NC(=O)[C@H](CO)NC(=O)[C@@H](NC(=O)[C@@H](Cc1ccccc1)NC)[C@@H](C)CC)C(=O)N[C@H](C(=O)N[C@@H](CO)C(=O)N[C@H]1C(=O)N[C@@H](C)C(=O)N[C@@H](CCSC)C(=O)N[C@@H]([C@@H](C)CC)C(=O)N[C@H]1C)[C@@H](C)CC [T86]
- Minimum inhibitory concentration (MIC) MRSA SA11 (MRSA SA11): 1 µg/mL (≈ 0.821 µM)
- Minimum inhibitory concentration (MIC) MRSA SA86 (MRSA SA86): 2 µg/mL (≈ 1.64 µM)
- Minimum inhibitory concentration (MIC) MRSA SA88 (MRSA SA88): 2 µg/mL (≈ 1.64 µM)
- Minimum inhibitory concentration (MIC) MRSA(SA11I4) (MRSA(SA11I4)): 2 µg/mL (≈ 1.64 µM)
- Minimum inhibitory concentration (MIC) SA (ATCC29213) (SA (ATCC29213)): 1 µg/mL (≈ 0.821 µM)
- Minimum inhibitory concentration (MIC) Enterococcus ATCCET (Enterococcus ATCCET): 2 µg/mL (≈ 1.64 µM)
- Minimum inhibitory concentration (MIC) Enterococcus ET60 (Enterococcus ET60): 2 µg/mL (≈ 1.64 µM)
- Minimum inhibitory concentration (MIC) Enterococcus ET6 (Enterococcus ET6): 2 µg/mL (≈ 1.64 µM)
- Minimum inhibitory concentration (MIC) Streptococcus faecalis SF [1]: 1 µg/mL (≈ 0.821 µM)

SMILES: CC[C@@H](C)[C@@H](NC(=O)[C@@H](CCC(N)=O)NC(=O)[C@H](CO)NC(=O)[C@@H](NC(=O)[C@@H](Cc1ccccc1)NC)[C@@H](C)CC)C(=O)N[C@H](C(=O)N[C@@H](CO)C(=O)N[C@H]1C(=O)N[C@@H](C)C(=O)N[C@@H](CC2CC2)C(=O)N[C@@H]([C@@H](C)CC)C(=O)O[C@H]1C)[C@@H](C)CC [β-cyclopropyl-Ala10-teixobactin]
- Minimum inhibitory concentration (MIC) MRSA(SA11I4) (MRSA(SA11I4)): 2 µg/mL (≈ 1.67 µM)
- Minimum inhibitory concentration (MIC) SA (ATCC29213) (SA (ATCC29213)): 0.5 µg/mL (≈ 0.417 µM)
- Antibacterial activity compared with teixobactin (MRSA and SA strains): comparable activities as teixobactin

SMILES: CC[C@H](C)[C@H](NC(=O)[C@@H](Cc1ccccc1)NC)C(=O)N[C@@H](CO)C(=O)N[C@H](CCC(N)=O)C(=O)N[C@@H](C(=O)N[C@H](C(=O)N[C@@H](CO)C(=O)N[C@H]1C(=O)N[C@@H](C)C(=O)N[C@@H](Cc2ccc(F)cc2)C(=O)N[C@@H]([C@@H](C)CC)C(=O)O[C@H]1C)[C@@H](C)CC)[C@@H](C)CC [Phe(4-F)10-teixobactin/Flurobactin, Phe(4-F)10-teixobactin]
- Minimum inhibitory concentration (MIC) MRSA(SA11I4) (MRSA(SA11I4)): 1 µg/mL (≈ 0.798 µM)
- Minimum inhibitory concentration (MIC) SA (ATCC29213) (SA (ATCC29213)): 0.5 µg/mL (≈ 0.399 µM)
- Antibacterial activity compared with teixobactin (MRSA and SA strains): two times higher activities than teixobactin

SMILES: CC[C@@H](C)[C@@H](NC(=O)[C@@H](CCC(N)=O)NC(=O)[C@H](CO)NC(=O)[C@@H](NC(=O)[C@@H](Cc1ccccc1)NC)[C@@H](C)CC)C(=O)N[C@H](C(=O)N[C@@H](CO)C(=O)N[C@H]1C(=O)N[C@@H](C)C(=O)N[C@@H](CCSC)C(=O)N[C@@H]([C@@H](C)CC)C(=O)O[C@H]1C)[C@@H](C)CC [Met10-teixobactin/Methibactin, Met10-teixobactin]
- Minimum inhibitory concentration (MIC) MRSA(SA11I4) (MRSA(SA11I4)): 1 µg/mL (≈ 0.82 µM)
- Minimum inhibitory concentration (MIC) SA (ATCC29213) (SA (ATCC29213)): 0.25 µg/mL (≈ 0.205 µM)
- Antibacterial activity compared with teixobactin (MRSA and SA strains): two times higher activities than teixobactin

SMILES: CC[C@@H](C)[C@@H](NC(=O)[C@@H](CCC(N)=O)NC(=O)[C@H](CO)NC(=O)[C@@H](NC(=O)[C@@H](Cc1ccccc1)NC)[C@@H](C)CC)C(=O)N[C@H](C(=O)N[C@@H](CO)C(=O)N[C@H]1C(=O)N[C@@H](C)C(=O)N[C@@H]([C@@H](C)CC)C(=O)N[C@@H]([C@@H](C)CC)C(=O)N[C@H]1C)[C@@H](C)CC [T84]
- Minimum inhibitory concentration (MIC) MRSA SA11 (MRSA SA11): 0.5 µg/mL (≈ 0.416 µM)
- Minimum inhibitory concentration (MIC) MRSA SA86 (MRSA SA86): 1 µg/mL (≈ 0.833 µM)
- Minimum inhibitory concentration (MIC) MRSA SA88 (MRSA SA88): 1 µg/mL (≈ 0.833 µM)
- Minimum inhibitory concentration (MIC) MRSA(SA11I4) (MRSA(SA11I4)): 1 µg/mL (≈ 0.833 µM)
- Minimum inhibitory concentration (MIC) SA (ATCC29213) (SA (ATCC29213)): 0.5 µg/mL (≈ 0.416 µM)
- Minimum inhibitory concentration (MIC) Enterococcus ATCCET (Enterococcus ATCCET): 1 µg/mL (≈ 0.833 µM)
- Minimum inhibitory concentration (MIC) Enterococcus ET60 (Enterococcus ET60): 1 µg/mL (≈ 0.833 µM)
- Minimum inhibitory concentration (MIC) Enterococcus ET6 (Enterococcus ET6): 1 µg/mL (≈ 0.833 µM)
- Minimum inhibitory concentration (MIC) Streptococcus faecalis SF [1]: 1 µg/mL (≈ 0.833 µM)

SMILES: CCC[C@@H]1NC(=O)[C@H](C)NC(=O)[C@H](NC(=O)[C@H](CO)NC(=O)[C@@H](NC(=O)[C@H](NC(=O)[C@@H](CCC(N)=O)NC(=O)[C@H](CO)NC(=O)[C@@H](NC(=O)[C@@H](Cc2ccccc2)NC)[C@@H](C)CC)[C@@H](C)CC)[C@@H](C)CC)[C@H](C)OC(=O)[C@H]([C@@H](C)CC)NC1=O [Nva10-teixobactin]
- Minimum inhibitory concentration (MIC) MRSA(SA11I4) (MRSA(SA11I4)): 1 µg/mL (≈ 0.842 µM)
- Minimum inhibitory concentration (MIC) SA (ATCC29213) (SA (ATCC29213)): 0.25 µg/mL (≈ 0.211 µM)
- Antibacterial activity compared with teixobactin (MRSA and SA strains): two times higher activities than teixobactin

SMILES: CC[C@@H](C)[C@@H](NC(=O)[C@@H](CCC(N)=O)NC(=O)[C@H](CCCNC(=N)N)NC(=O)[C@@H](NC(=O)[C@@H](Cc1ccccc1)NC)[C@@H](C)CC)C(=O)N[C@H](C(=O)N[C@@H](CO)C(=O)N[C@H]1C(=O)N[C@@H](C)C(=O)N[C@@H](C2CCCCC2)C(=O)N[C@@H]([C@@H](C)CC)C(=O)O[C@H]1C)[C@@H](C)CC [T87]
- Minimum inhibitory concentration (MIC) MRSA SA11 (MRSA SA11): 0.5 µg/mL (≈ 0.386 µM)
- Minimum inhibitory concentration (MIC) MRSA SA86 (MRSA SA86): 2 µg/mL (≈ 1.54 µM)
- Minimum inhibitory concentration (MIC) MRSA SA88 (MRSA SA88): 1 µg/mL (≈ 0.771 µM)
- Minimum inhibitory concentration (MIC) MRSA(SA11I4) (MRSA(SA11I4)): 2 µg/mL (≈ 1.54 µM)
- Minimum inhibitory concentration (MIC) SA (ATCC29213) (SA (ATCC29213)): 1 µg/mL (≈ 0.771 µM)
- Minimum inhibitory concentration (MIC) Enterococcus ATCCET (Enterococcus ATCCET): 1 µg/mL (≈ 0.771 µM)
- Minimum inhibitory concentration (MIC) Enterococcus ET60 (Enterococcus ET60): 0.5 µg/mL (≈ 0.386 µM)
- Minimum inhibitory concentration (MIC) Enterococcus ET6 (Enterococcus ET6): 1 µg/mL (≈ 0.771 µM)
- Minimum inhibitory concentration (MIC) Streptococcus faecalis SF [1]: 1 µg/mL (≈ 0.771 µM)

SMILES: CCCC[C@@H]1NC(=O)[C@H](C)NC(=O)[C@H](NC(=O)[C@H](CO)NC(=O)[C@@H](NC(=O)[C@H](NC(=O)[C@@H](CCC(N)=O)NC(=O)[C@H](CO)NC(=O)[C@@H](NC(=O)[C@@H](Cc2ccccc2)NC)[C@@H](C)CC)[C@H](C)CC)[C@@H](C)CC)[C@H](C)OC(=O)[C@H]([C@@H](C)CC)NC1=O [Nle10-teixobactin]
- Minimum inhibitory concentration (MIC) MRSA(SA11I4) (MRSA(SA11I4)): 2 µg/mL (≈ 1.66 µM)
- Minimum inhibitory concentration (MIC) SA (ATCC29213) (SA (ATCC29213)): 0.5 µg/mL (≈ 0.416 µM)
- Antibacterial activity compared with teixobactin (MRSA and SA strains): comparable activities as teixobactin

SMILES: CC[C@@H](C)[C@@H](NC(=O)[C@@H](CCC(N)=O)NC(=O)[C@H](CO)NC(=O)[C@@H](NC(=O)[C@@H](Cc1ccccc1)NC)[C@@H](C)CC)C(=O)N[C@H](C(=O)N[C@@H](CO)C(=O)N[C@H]1C(=O)N[C@@H](C)C(=O)N[C@@H](C2CCCCC2)C(=O)N[C@@H]([C@@H](C)CC)C(=O)N[C@H]1C)[C@@H](C)CC [T83]
- Minimum inhibitory concentration (MIC) MRSA SA11 (MRSA SA11): 0.5 µg/mL (≈ 0.408 µM)
- Minimum inhibitory concentration (MIC) MRSA SA86 (MRSA SA86): 1 µg/mL (≈ 0.815 µM)
- Minimum inhibitory concentration (MIC) MRSA SA88 (MRSA SA88): 0.5 µg/mL (≈ 0.408 µM)
- Minimum inhibitory concentration (MIC) MRSA(SA11I4) (MRSA(SA11I4)): 1 µg/mL (≈ 0.815 µM)
- Minimum inhibitory concentration (MIC) SA (ATCC29213) (SA (ATCC29213)): 0.5 µg/mL (≈ 0.408 µM)
- Minimum inhibitory concentration (MIC) Enterococcus ATCCET (Enterococcus ATCCET): 1 µg/mL (≈ 0.815 µM)
- Minimum inhibitory concentration (MIC) Enterococcus ET60 (Enterococcus ET60): 0.5 µg/mL (≈ 0.408 µM)
- Minimum inhibitory concentration (MIC) Enterococcus ET6 (Enterococcus ET6): 1 µg/mL (≈ 0.815 µM)
- Minimum inhibitory concentration (MIC) Streptococcus faecalis SF [1]: 0.5 µg/mL (≈ 0.408 µM)

SMILES: CCC[C@@H]1NC(=O)[C@H](C)NC(=O)[C@H](NC(=O)[C@H](CO)NC(=O)[C@@H](NC(=O)[C@H](NC(=O)[C@@H](CCC(N)=O)NC(=O)[C@H](CO)NC(=O)[C@@H](NC(=O)[C@@H](Cc2ccccc2)NC)[C@@H](C)CC)[C@H](C)CC)[C@@H](C)CC)[C@H](C)NC(=O)[C@H]([C@@H](C)CC)NC1=O [T85]
- Minimum inhibitory concentration (MIC) MRSA SA11 (MRSA SA11): 1 µg/mL (≈ 0.843 µM)
- Minimum inhibitory concentration (MIC) MRSA SA86 (MRSA SA86): 2 µg/mL (≈ 1.69 µM)
- Minimum inhibitory concentration (MIC) MRSA SA88 (MRSA SA88): 2 µg/mL (≈ 1.69 µM)
- Minimum inhibitory concentration (MIC) MRSA(SA11I4) (MRSA(SA11I4)): 1 µg/mL (≈ 0.843 µM)
- Minimum inhibitory concentration (MIC) SA (ATCC29213) (SA (ATCC29213)): 0.5 µg/mL (≈ 0.421 µM)
- Minimum inhibitory concentration (MIC) Enterococcus ATCCET (Enterococcus ATCCET): 2 µg/mL (≈ 1.69 µM)
- Minimum inhibitory concentration (MIC) Enterococcus ET60 (Enterococcus ET60): 2 µg/mL (≈ 1.69 µM)
- Minimum inhibitory concentration (MIC) Enterococcus ET6 (Enterococcus ET6): 2 µg/mL (≈ 1.69 µM)
- Minimum inhibitory concentration (MIC) Streptococcus faecalis SF [1]: 1 µg/mL (≈ 0.843 µM)

SMILES: CC[C@@H](C)[C@@H](NC(=O)[C@@H](CCC(N)=O)NC(=O)[C@H](CO)NC(=O)[C@@H](NC(=O)[C@@H](Cc1ccccc1)NC)[C@@H](C)CC)C(=O)N[C@H](C(=O)N[C@@H](CO)C(=O)N[C@H]1C(=O)N[C@@H](C)C(=O)N[C@@H](CC2CCCCC2)C(=O)N[C@@H]([C@@H](C)CC)C(=O)O[C@H]1C)[C@@H](C)CC [Cha10-teixobactin]
- Minimum inhibitory concentration (MIC) MRSA(SA11I4) (MRSA(SA11I4)): 2 µg/mL (≈ 1.61 µM)
- Minimum inhibitory concentration (MIC) SA (ATCC29213) (SA (ATCC29213)): 0.5 µg/mL (≈ 0.403 µM)
- Antibacterial activity compared with teixobactin (MRSA and SA strains): comparable activities as teixobactin
